Measured values published in patent publication US12145913B2, “Inhibition of Olig2 activity” (Curtana Pharmaceuticals, Inc., priority 2016, dated 2024).

The molecules below were run on GBM8 human glioblastoma cells (assay: GBM8 viability assay (Cell Titer Glo)). Conditions: 72 h, Table 1, 3 days incubation, luminescence.
Type: cell-based
Protocol: Cell culture medium was prepared from a NSA proliferation kit (Neurocult) and NeuroCult supplements (Stemcell Tech Cat. #05751) and treated with 20 μL of 10 μg/mL rh EGF, 10 μL of 10 μg/mL rh bFGF and 10 μL of 0.2% Heparin. In this medium, human glioblastoma cells were cultured in ultra-low attachment tissue culture flasks until 1×10^6 cells ml was achieved (GBM4 and GBM8 are distinct neurosphere cell cultures derived from these human patient tissues). GBM4 and GBM8 cells were dissociated and 10 mL of media containing 4000 human glioblastoma cells per 90 μL were transferred to an ultra-low binding 96-well plate and incubated at 37° C. overnight. On the following day, 10 μL of a 1% DMSO solution of test compound in assay medium was added to wells containing the cell suspension and the mixture incubated at 37° C. for 3 days. At this time, the plate was removed from the incubator and allowed to reach room temperature. After about 30 minutes, 50 μL of Cell Titer Glo solution was added to each well and the plate shaken for 1 minute at low speed. After 10 minutes luminescence was recorded using a Tecan Safire2 reader.
Reduction in luminescence compared to DMSO only control wells was used to determine the percentage inhibition of cell growth. IC50s were calculated using the % inhibition of luminescence for serial dilutions of compounds fitted to a 4-parameter fit within the Prism (San Diego) curve fitting program. Tables 1 (compounds 3-188) and 2 (compounds 190-212) show the GBM4 IC50 and GBM8 IC50 for compounds described herein.

Compound | IC50
Cc1cc(NCCCN)nc(NC(=O)Nc2cc3ccccc3cn2)n1 [Compound 91, 1-(4-((3-aminopropyl)amino)-6-methylpyrimidin-2-yl)-3-(isoquinolin-3-yl)urea] | 500 to 5000 nM
CN(C)CCCNc1ccnc(NC(=O)Nc2ccc(Cl)c(Cl)c2)n1 [Compound 157, 1-(3,4-dichlorophenyl)-3-(4-((3-(dimethylamino)propyl)amino)pyrimidin-2-yl)urea] | 500 to 5000 nM
Cc1cc(NCC2CCCN(C)C2)nc(NC(=O)Nc2ccc3ccccc3c2)n1 (stereo not drawn) [Compound 11] | 500 to 5000 nM
CC(=O)NCCCNc1cc(C)nc(NC(=O)Nc2ccc3ncccc3c2)n1 [Compound 109, N-(3-((6-methyl-2-(3-(quinolin-6-yl)ureido)pyrimidin-4-yl)amino)propyl)acetamide] | 500 to 5000 nM
Cc1cc(NCCNS(C)(=O)=O)nc(NC(=O)Nc2ccc3ccccc3n2)n1 [Compound 102, N-(2-((6-methyl-2-(3-(quinolin-2-yl)ureido)pyrimidin-4-yl)amino)ethyl)methanesulfonamide] | 500 to 5000 nM
Cc1cc(NCCN(C)C)nc(NC(=O)Nc2ccc3ccccc3n2)n1 [Compound 97, 1-(4-((2-(dimethylamino)ethyl)amino)-6-methylpyrimidin-2-yl)-3-(quinolin-2-yl)urea] | 5000 to 30000 nM
CC(=O)NCCNc1cc(C)nc(NC(=O)Nc2ccc3ncccc3c2)n1 [Compound 110, N-(2-((6-methyl-2-(3-(quinolin-6-yl)ureido)pyrimidin-4-yl)amino)ethyl)acetamide] | 500 to 5000 nM
CC(=O)NCCNc1cc(C)nc(NC(=O)Nc2ccc3ccncc3c2)n1 [Compound 119, N-(2-((2-(3-(isoquinolin-7-yl)ureido)-6-methylpyrimidin-4-yl)amino)ethyl)acetamide] | 500 to 5000 nM

More lines, now with the values ahead:

IC50 | Compound
< 500 nM | Cc1cc(NCCCc2ncc[nH]2)nc(NC(=O)Nc2ccc3ccccc3c2)n1 [Compound 23, 1-(4-((3-(1H-imidazol-2-yl)propyl)amino)-6-methylpyrimidin-2-yl)-3-(naphthalen-2-yl)urea]
< 500 nM | Cc1cc(NCC(F)(F)CO)nc(NC(=O)Nc2ccc3ccccc3c2)n1 [Compound 27, 1-(4-((2,2-difluoro-3-hydroxypropyl)amino)-6-methylpyrimidin-2-yl)-3-(naphthalen-2-yl)urea]
< 500 nM | CNC(=O)CNc1cc(C)nc(NC(=O)Nc2ccc3cnccc3c2)n1 [Compound 58]
< 500 nM | O=C(Nc1ccc(OC(F)(F)F)cc1)Nc1nccc(Cl)n1 [Compound 162, 1-(4-Chloropyrimidin-2-yl)-3-(4-(trifluoromethoxy)phenyl)urea]
< 500 nM | Cc1cc(NCCCN(C)C)nc(NC(=O)Nc2ccc3cnccc3c2)n1 [Compound 50, 1-(4-((3-(dimethylamino)propyl)amino)-6-methylpyrimidin-2-yl)-3-(isoquinolin-6-yl)urea]
< 500 nM | CCNc1cc(C)nc(NC(=O)Nc2ccc(Oc3ccccc3)cc2)n1 [Compound 134, 1-(4-(ethylamino)-6-methylpyrimidin-2-yl)-3-(4-phenoxyphenyl)urea]
< 500 nM | Cc1cc(NCCCNS(C)(=O)=O)nc(NC(=O)Nc2ccc3cnccc3c2)n1 [Compound 71, N-(3-((2-(3-(isoquinolin-6-yl)ureido)-6-methylpyrimidin-4-yl)amino)propyl)methanesulfonamide]
< 500 nM | Cc1cc(NCCNS(C)(=O)=O)nc(NC(=O)Nc2ccc3ncccc3c2)n1 [Compound 111, N-(2-((6-methyl-2-(3-(quinolin-6-yl)ureido)pyrimidin-4-yl)amino)ethyl)methanesulfonamide]

Same assay, conditions: 72 h, Table 2, 3 days incubation, luminescence

IC50 | Compound
500 to 5000 nM | CC(C)c1cc(NO)nc(NC(=O)Nc2ccc(OC(F)(F)F)cc2)n1 [Compound 199, 1-(4-(hydroxyamino)-6-isopropylpyrimidin-2-yl)-3-(4-(trifluoromethoxy)phenyl)urea]
500 to 5000 nM | CNCCCNc1cc(C(C)C)nc(NC(=O)Nc2ccc(OC(F)(F)F)cc2)n1 [Compound 198, 1-(4-isopropyl-6-((3-(methylamino)propyl)amino)pyrimidin-2-yl)-3-(4-(trifluoromethoxy)phenyl)urea]
